Experimental data published in paper PMC4155923 (AIDS (London, England), 2012).
Like-named read-outs stand apart in the source and are kept apart here.

Experiments:
[1] = test system: patients expressing HLA risk alleles; conditions: cited from earlier work
sHLA-B*57:01 [2] = target: T1, sHLA-B*57:01 (Homo sapiens, UniProt P01889); test: Drug effect on LF9FITC peptide binding to sHLA-B*57:01
CD8+ T cells = conditions: abacavir hypersensitivity; ref [14]; cited from earlier work
HLA-B*57:01 = format: cell-based, human; conditions: abacavir-treated cells
sHLA-B*57:01 [3] = target: T1, sHLA-B*57:01; test: HLA-B*57:01 fluorescence polarization competition peptide-binding assay; conditions: competition with LF9FITC; for affinity for HLA-B*57:01 (in words): fluorescence polarization, no abacavir
[4] = target: Soluble HLA-B*57:01 (human | human (endogenous in 721.221)); test: fluorescence polarisation

## Oc1ncnc2[nH]ncc12 [allopurinol]
[1]; severe cutaneous adverse reactions, HLA-B*58:01, ref [7]
  HLA-associated drug reaction: Severe cutaneous adverse reactions associated with class I HLA

## Nc1nc(NC2CC2)c2ncn([C@H]3C=C[C@@H](CO)C3)c2n1 [Abacavir, abacavir]
sHLA-B*57:01 [2]; 200 μmol/l abacavir, in presence of competitor peptide HSL or STIR
  LF9FITC reference binding signal in competition experiment: expected increase in reference LF9FITC peptide binding signal with abacavir
sHLA-B*57:01 [2]; fluorescence polarization at equilibrium
  concentration at which the increase in LF9FITC binding starts: 10 µmol/L
CD8+ T cells
  requirements of CD8+ T-cell response: CD8^+ T-cell responses require transporter of antigen presentation (TAP)/tapasin expression, antigen processing and specific amino acids in the F pocket of HLA-B*57:01
HLA-B*57:01
  covalent drug-peptide adducts in peptide fractions: we have not, as yet, identified covalent drug–peptide adducts in the peptide fractions
[1]; HLA-B*57:01 individuals, ref (1)
  tolerance of abacavir in HLA-B*57:01 individuals: Many HLA-B*57:01 individuals are able to tolerate abacavir and not show hypersensitivity
[1]; drug hypersensitivity, HLA-B*57:01, ref [1]–[3]
  HLA-associated drug reaction: linked to HLA-B*57:01

## Cc1onc(-c2c(F)cccc2Cl)c1C(=O)N[C@@H]1C(=O)N2[C@@H]1SC(C)(C)[C@@H]2C(=O)O [flucloxacillin]
[1]; liver injury, HLA-B*57:01, ref [8]
  HLA-associated drug reaction: causes drug-induced liver injury in patients expressing HLA-B*57:01

## STIRLLTSL
sHLA-B*57:01 [3]
  affinity for HLA-B*57:01 (in words): could strongly compete in the HLA-B*57:01 peptide-binding assay (Fig. 4a and b), with logIC50 values consistent with high-affinity binding
sHLA-B*57:01 [3]; presence vs absence of 200 μmol/l abacavir
  effect of abacavir on IC50 / inhibition by competitor peptide: No significant difference in inhibition

## NC(=O)N1c2ccccc2C=Cc2ccccc21 [carbamazepine]
[1]; severe cutaneous adverse reactions, HLA-B*15:02 [4], B*15:11 [5], A*31:01 [6], ref [4]–[6]
  HLA-associated drug reaction: Severe cutaneous adverse reactions associated with class I HLA

## LSSPVTKSF [LF9]
sHLA-B*57:01 [3]
  affinity for HLA-B*57:01 (in words): consistent with high-affinity binding

B1: LF9 (…) (peptide)
peptide: LSSPVTKSF
[4]
  log IC50: 2.6
